Residue numbers refer to the chain shown, from its start.

Holding throughout (assay type): binding
In one experiment the target is T1, MARK3(48-370) (Homo sapiens, UniProt P27448).
T1 construct: The purified His6-TEV-MARK3(48-370) was immobilized using the same approach as GST-NUAK2(1-628); HRV3C site (C, cleaved yes); AviTag (C, cleaved yes); made in house
T1 sequence (P27448 48-370): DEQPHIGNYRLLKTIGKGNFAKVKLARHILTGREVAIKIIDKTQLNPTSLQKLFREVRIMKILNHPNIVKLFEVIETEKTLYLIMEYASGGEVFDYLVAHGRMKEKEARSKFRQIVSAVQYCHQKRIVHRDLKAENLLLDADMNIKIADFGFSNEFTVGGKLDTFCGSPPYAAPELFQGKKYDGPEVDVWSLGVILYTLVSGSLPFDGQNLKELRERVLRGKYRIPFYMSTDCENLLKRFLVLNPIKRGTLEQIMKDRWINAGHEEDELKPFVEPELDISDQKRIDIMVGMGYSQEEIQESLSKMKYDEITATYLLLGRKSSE
The experiment can be described thus: SPR, pure MARK3(48-370) WT immobilized by amine coupling, GSK461364A injected. Here is the method:
(§1) The interaction analysis cycles consisted of 140 s of sample injection followed by 350 to 600 s of running buffer flow. The running buffer was composed of 20 mM HEPES pH 7.4, 100 mM NaCl, 5 mM MgCl2, 1 mM EGTA, 1 mM DTT, 0.05% Tween-20, and 2% DMSO, and the experiment was performed at 15 °C.
All sensorgrams were processed by first subtracting the binding response recorded from the control surface (reference spot, where only the avidin protein is immobilized), followed by subtraction of the buffer blank injection from the reaction spot. All datasets were fitted to a simple 1:1 Langmuir interaction model to determine the kinetic rate constants, and the interaction affinity was additionally calculated at a steady state when applicable. In cases where small molecules were present during the assay, a DMSO solvent correction (1–3%) was applied to account for variations in bulk signal and to achieve high-quality data. The experiments with immobilized purified proteins were performed on a Biacore 4000 (Cytiva, Uppsala, Sweden), and the interaction was evaluated using the provided Biacore 4000 evaluation software, while the experiments with soluble cell lysates on a Biacore T200 (Cytiva, Uppsala, Sweden) used the provided Biacore T200 evaluation software. All SPR experiments were performed in duplicate.

A further experiment deals with T2, MARK3(48-370) Mutant 2 (Homo sapiens, UniProt P27448, E139D/I62L/L128I/L130I/T204H/V116I/V205Q).
T2 construct: made in house; host or cells: E. coli Rosetta 2, co-expressed with BirA; soluble lysate used without purification
T2 sequence (P27448 48-370 I62L/V116I/L128I/L130I/E139D/T204H/V205Q): T1 sequence (P27448 48-370) with I15L, V69I, L81I, L83I, E92D, T157H, V158Q
The experiment can be described thus: SPR Extract2Chip, cellular biotinylated MARK3 Mutant 2, GSK461364A injected. The note with it: 15 °C. Here is the method: (§2) The cellular biotinylation of MARK3(48-370) kinase domain mutants followed the same approach as described for CypD. The 6 different mutants were expressed in Rosetta^TM 2 in PB media, and induced with 100 µM IPTG overnight at 18 °C.
(§3) The cellular biotinylated MARK3 NUAK2-like mutants were immobilized using the approach described in Section 2.5.2. The soluble cell lysates were diluted to a final concentration of 200 µg/mL, then injected over the neutravidin surfaces for 200 or 1400 s in order to reach 1000 to 2300 RU.
as §1
(§4) All sensorgrams were processed by first subtracting the binding response recorded from the control surface (reference spot, where only the avidin protein is immobilized), followed by subtraction of the buffer blank injection from the reaction spot. All datasets were fitted to a simple 1:1 Langmuir interaction model to determine the kinetic rate constants, and the interaction affinity was additionally calculated at a steady state when applicable. […]

A further experiment deals with T3, MARK3(48-370) Mutant 3 (Homo sapiens, UniProt P27448, A68G/E139D/F67Y/I62L/L128I/L130I/N66T/T204H/V116I/V205Q).
T3 construct: made in house; host or cells: E. coli Rosetta 2, co-expressed with BirA; soluble lysate used without purification
T3 sequence (P27448 48-370 I62L/N66T/F67Y/A68G/V116I/L128I/L130I/E139D/T204H/V205Q): T1 sequence (P27448 48-370) with I15L, N19T, F20Y, A21G, V69I, L81I, L83I, E92D, T157H, V158Q
The experiment can be described thus: SPR Extract2Chip, cellular biotinylated MARK3 Mutant 3, GSK461364A injected. The note with it: 15 °C. As for the experimental part:
as §2, §3, §1, §4

The target in the next experiment is T4, MARK3(48-370) Mutant 5 (Homo sapiens, UniProt P27448, A68G/E139D/F199L/F67Y/G137R/I62L/L128I/L130I/N66T/T204H/V116I/V205Q).
T4 construct: made in house; host or cells: E. coli Rosetta 2, co-expressed with BirA; soluble lysate used without purification
T4 sequence (P27448 48-370 I62L/N66T/F67Y/A68G/V116I/L128I/L130I/G137R/E139D/F199L/T204H/V205Q): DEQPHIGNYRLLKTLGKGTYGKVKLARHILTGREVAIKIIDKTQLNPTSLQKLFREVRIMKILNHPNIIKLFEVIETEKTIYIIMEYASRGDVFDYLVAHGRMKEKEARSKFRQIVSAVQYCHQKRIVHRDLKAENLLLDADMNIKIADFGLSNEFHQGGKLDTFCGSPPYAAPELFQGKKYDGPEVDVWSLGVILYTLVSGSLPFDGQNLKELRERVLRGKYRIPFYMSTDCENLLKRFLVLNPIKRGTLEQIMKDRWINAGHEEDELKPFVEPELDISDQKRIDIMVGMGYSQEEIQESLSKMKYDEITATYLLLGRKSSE
The experiment can be described thus: SPR Extract2Chip, cellular biotinylated MARK3 Mutant 5, GSK461364A injected. The note with it: 15 °C. As for the experimental part: as §2, §3, §1, §4

The target of the next experiment is T5, MARK3(48-370) Mutant 6 (Homo sapiens, UniProt P27448, A68G/E139D/F199L/F67Y/G137R/I62L/L128I/L130I/L72K/N66T/T204H/V116I/V205Q).
T5 construct: made in house; host or cells: E. coli Rosetta 2, co-expressed with BirA; soluble lysate used without purification
T5 sequence (P27448 48-370 I62L/N66T/F67Y/A68G/L72K/V116I/L128I/L130I/G137R/E139D/F199L/T204H/V205Q): T4 sequence (P27448 48-370 I62L/N66T/F67Y/A68G/V116I/L128I/L130I/G137R/E139D/F199L/T204H/V205Q) with L25K
The experiment can be described thus: SPR Extract2Chip, cellular biotinylated MARK3 Mutant 6, GSK461364A injected. The note with it: 15 °C. As for the experimental part: as §2, §3, §1, §4

Regarding `C[C@@H](Oc1cc(-n2cnc3ccc(CN4CCN(C)CC4)cc32)sc1C(N)=O)c1ccccc1C(F)(F)F` [GSK461364A], on MARK3(48-370), the “Binding behavior” value is “transient binding behavior”. The “kd ± SD” value worked out at 0.081 ± 0.015 s⁻¹ at MARK3(48-370) Mutant 2, 0.028 ± 0.003 s⁻¹ on MARK3(48-370) Mutant 3, 0.035 ± 0.012 s⁻¹ at MARK3(48-370) Mutant 5 and 0.021 ± 0.0012 s⁻¹ at MARK3(48-370) Mutant 6.

(Values after publication PMC10605449 (Biosensors, 2023).)
